Reference: PubChem BioAssay (NCI)
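Compound exposure: 48 hours, 5 concentrations, 96-well plates. TGI is the concentration that stops growth completely.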

What was measured:
Assay in all cases: growth of human tumour cells (NCI), 48 h
OVCAR-3 ovarian = system: OVCAR-3 ovarian
HT29 colon = system: HT29 colon
DLD-1 colon = system: DLD-1 colon
DMS 273 small cell lung = system: DMS 273 small cell lung
HCT-15 colon = system: HCT-15 colon
EKVX NSCLC = system: EKVX NSCLC
CAKI-1 renal = system: CAKI-1 renal
SK-MEL-2 melanoma = system: SK-MEL-2 melanoma
LXFL 529 NSCLC = system: LXFL 529 NSCLC
A549 NSCLC = system: A549 NSCLC
HOP-92 NSCLC = system: HOP-92 NSCLC
HL-60(TB) leukemia = system: HL-60(TB) leukemia
K-562 leukemia = system: K-562 leukemia
SNB-75 CNS = system: SNB-75 CNS
SN12C renal = system: SN12C renal
COLO 205 colon = system: COLO 205 colon
NCI-H522 lung = system: NCI-H522 lung
OVCAR-8 ovarian = system: OVCAR-8 ovarian
RPMI-8226 leukemia = system: RPMI-8226 leukemia
M19-MEL melanoma = system: M19-MEL melanoma
NCI-H23 lung = system: NCI-H23 lung
HCC-2998 colon = system: HCC-2998 colon
U251 CNS = system: U251 CNS
TK-10 renal = system: TK-10 renal
XF 498 CNS = system: XF 498 CNS
A498 renal = system: A498 renal
OVCAR-4 ovarian = system: OVCAR-4 ovarian
SK-OV-3 ovarian = system: SK-OV-3 ovarian
SF-268 CNS = system: SF-268 CNS
CCRF-CEM leukemia = system: CCRF-CEM leukemia
MOLT-4 leukemia = system: MOLT-4 leukemia
KM20L2 colon = system: KM20L2 colon
SNB-19 CNS = system: SNB-19 CNS
NCI-H226 lung = system: NCI-H226 lung
KM12 colon = system: KM12 colon
SF-295 CNS = system: SF-295 CNS
SK-MEL-28 melanoma = system: SK-MEL-28 melanoma
M14 melanoma = system: M14 melanoma
IGROV1 ovarian = system: IGROV1 ovarian
SK-MEL-5 melanoma = system: SK-MEL-5 melanoma
SR leukemia = system: SR leukemia
786-0 renal = system: 786-0 renal
NCI-H460 lung = system: NCI-H460 lung
RXF 393 renal = system: RXF 393 renal
SF-539 CNS = system: SF-539 CNS
ACHN renal = system: ACHN renal
HOP-18 NSCLC = system: HOP-18 NSCLC
UO-31 renal = system: UO-31 renal
SW-620 colon = system: SW-620 colon
MALME-3M melanoma = system: MALME-3M melanoma
UACC-257 melanoma = system: UACC-257 melanoma
LOX IMVI melanoma = system: LOX IMVI melanoma
DMS 114 small cell lung = system: DMS 114 small cell lung
HOP-62 NSCLC = system: HOP-62 NSCLC
HCT-116 colon = system: HCT-116 colon
OVCAR-5 ovarian = system: OVCAR-5 ovarian
UACC-62 melanoma = system: UACC-62 melanoma
SNB-78 CNS = system: SNB-78 CNS

Q: With `Cc1c(C)n(COCCO)c2ncnc(N)c12` as the compound, how does the TGI (OVCAR-3 ovarian) read?
A: > 100 µM

Q: What about the TGI (HT29 colon) of the same compound?
A: > 100 µM

Q: And the TGI (DLD-1 colon)?
A: > 100 µM

Q: What about the TGI (DMS 273 small cell lung) of the same compound?
A: > 100 µM

Q: And the TGI (HCT-15 colon)?
A: > 100 µM

Q: What about the TGI (EKVX NSCLC) of the same compound?
A: > 100 µM

Q: And the TGI (CAKI-1 renal)?
A: > 100 µM

Q: And the TGI (SK-MEL-2 melanoma)?
A: > 100 µM

Q: What about the TGI (LXFL 529 NSCLC) of the same compound?
A: > 100 µM

Q: What about the TGI (A549 NSCLC) of the same compound?
A: > 100 µM

Q: And the TGI (HOP-92 NSCLC)?
A: > 100 µM

Q: What about the TGI (HL-60(TB) leukemia) of the same compound?
A: > 100 µM

Q: And the TGI (K-562 leukemia)?
A: > 100 µM

Q: What about the TGI (SNB-75 CNS) of the same compound?
A: > 100 µM

Q: What about the TGI (SN12C renal) of the same compound?
A: > 100 µM

Q: What about the TGI (COLO 205 colon) of the same compound?
A: > 100 µM

Q: What about the TGI (NCI-H522 lung) of the same compound?
A: > 100 µM

Q: What about the TGI (OVCAR-8 ovarian) of the same compound?
A: > 100 µM

Q: And the TGI (RPMI-8226 leukemia)?
A: > 100 µM

Q: What about the TGI (M19-MEL melanoma) of the same compound?
A: > 100 µM

Q: And the TGI (NCI-H23 lung)?
A: > 100 µM

Q: And the TGI (HCC-2998 colon)?
A: > 100 µM

Q: What about the TGI (U251 CNS) of the same compound?
A: > 100 µM

Q: And the TGI (TK-10 renal)?
A: > 100 µM

Q: What about the TGI (XF 498 CNS) of the same compound?
A: > 100 µM

Q: What about the TGI (A498 renal) of the same compound?
A: > 100 µM

Q: What about the TGI (OVCAR-4 ovarian) of the same compound?
A: > 100 µM

Q: What about the TGI (SK-OV-3 ovarian) of the same compound?
A: > 100 µM

Q: What about the TGI (SF-268 CNS) of the same compound?
A: > 100 µM

Q: What about the TGI (CCRF-CEM leukemia) of the same compound?
A: > 100 µM

Q: What about the TGI (MOLT-4 leukemia) of the same compound?
A: > 100 µM

Q: And the TGI (KM20L2 colon)?
A: > 100 µM

Q: What about the TGI (SNB-19 CNS) of the same compound?
A: > 100 µM

Q: What about the TGI (NCI-H226 lung) of the same compound?
A: > 100 µM

Q: And the TGI (KM12 colon)?
A: > 100 µM

Q: And the TGI (SF-295 CNS)?
A: > 100 µM

Q: What about the TGI (SK-MEL-28 melanoma) of the same compound?
A: > 100 µM

Q: And the TGI (M14 melanoma)?
A: > 100 µM

Q: What about the TGI (IGROV1 ovarian) of the same compound?
A: > 100 µM

Q: What about the TGI (SK-MEL-5 melanoma) of the same compound?
A: > 100 µM

Q: What about the TGI (SR leukemia) of the same compound?
A: > 100 µM

Q: And the TGI (786-0 renal)?
A: > 100 µM

Q: What about the TGI (NCI-H460 lung) of the same compound?
A: > 100 µM

Q: What about the TGI (RXF 393 renal) of the same compound?
A: > 100 µM

Q: What about the TGI (SF-539 CNS) of the same compound?
A: > 100 µM

Q: And the TGI (ACHN renal)?
A: > 100 µM

Q: What about the TGI (HOP-18 NSCLC) of the same compound?
A: > 100 µM

Q: And the TGI (UO-31 renal)?
A: > 100 µM

Q: And the TGI (SW-620 colon)?
A: > 100 µM

Q: With `COC(=O)[C@@H]1c2[nH]c3ccccc3c2C[C@@H]2c3ccccc3NC(=O)[C@@H]21` as the compound, how does the TGI (OVCAR-3 ovarian) read?
A: > 100 µM

Q: What about the TGI (HT29 colon) of the same compound?
A: > 100 µM

Q: And the TGI (DLD-1 colon)?
A: > 100 µM

Q: And the TGI (DMS 273 small cell lung)?
A: > 100 µM

Q: What about the TGI (HCT-15 colon) of the same compound?
A: > 100 µM

Q: And the TGI (EKVX NSCLC)?
A: > 100 µM

Q: And the TGI (CAKI-1 renal)?
A: > 100 µM

Q: And the TGI (SK-MEL-2 melanoma)?
A: > 100 µM

Q: And the TGI (LXFL 529 NSCLC)?
A: > 100 µM

Q: And the TGI (A549 NSCLC)?
A: > 100 µM

Q: And the TGI (HL-60(TB) leukemia)?
A: > 100 µM

Q: What about the TGI (K-562 leukemia) of the same compound?
A: > 100 µM

Q: And the TGI (SNB-75 CNS)?
A: 60.6 µM

Q: What about the TGI (SN12C renal) of the same compound?
A: > 100 µM

Q: And the TGI (MALME-3M melanoma)?
A: > 100 µM

Q: What about the TGI (COLO 205 colon) of the same compound?
A: > 100 µM

Q: And the TGI (NCI-H522 lung)?
A: > 100 µM

Q: And the TGI (UACC-257 melanoma)?
A: > 100 µM

Q: What about the TGI (OVCAR-8 ovarian) of the same compound?
A: > 100 µM

Q: And the TGI (RPMI-8226 leukemia)?
A: > 100 µM

Q: And the TGI (M19-MEL melanoma)?
A: > 100 µM

Q: And the TGI (NCI-H23 lung)?
A: > 100 µM

Q: What about the TGI (HCC-2998 colon) of the same compound?
A: > 100 µM

Q: And the TGI (U251 CNS)?
A: > 100 µM

Q: And the TGI (TK-10 renal)?
A: > 100 µM

Q: What about the TGI (XF 498 CNS) of the same compound?
A: > 100 µM

Q: And the TGI (A498 renal)?
A: > 100 µM

Q: What about the TGI (SK-OV-3 ovarian) of the same compound?
A: > 100 µM

Q: What about the TGI (SF-268 CNS) of the same compound?
A: > 31.6 µM

Q: What about the TGI (CCRF-CEM leukemia) of the same compound?
A: > 100 µM

Q: What about the TGI (LOX IMVI melanoma) of the same compound?
A: > 100 µM

Q: And the TGI (MOLT-4 leukemia)?
A: > 100 µM

Q: And the TGI (KM20L2 colon)?
A: > 100 µM

Q: And the TGI (SNB-19 CNS)?
A: > 100 µM

Q: And the TGI (NCI-H226 lung)?
A: > 60.8 µM

Q: What about the TGI (KM12 colon) of the same compound?
A: > 100 µM

Q: And the TGI (SF-295 CNS)?
A: > 31.6 µM

Q: What about the TGI (DMS 114 small cell lung) of the same compound?
A: > 100 µM

Q: And the TGI (SK-MEL-28 melanoma)?
A: > 100 µM

Q: What about the TGI (HOP-62 NSCLC) of the same compound?
A: 54.3 µM

Q: What about the TGI (M14 melanoma) of the same compound?
A: > 100 µM

Q: And the TGI (IGROV1 ovarian)?
A: > 100 µM

Q: What about the TGI (SK-MEL-5 melanoma) of the same compound?
A: > 100 µM

Q: What about the TGI (786-0 renal) of the same compound?
A: > 100 µM

Q: What about the TGI (HCT-116 colon) of the same compound?
A: > 100 µM

Q: And the TGI (OVCAR-5 ovarian)?
A: > 100 µM

Q: What about the TGI (NCI-H460 lung) of the same compound?
A: > 100 µM

Q: And the TGI (RXF 393 renal)?
A: > 100 µM

Q: And the TGI (SF-539 CNS)?
A: > 100 µM

Q: What about the TGI (ACHN renal) of the same compound?
A: > 100 µM

Q: And the TGI (UACC-62 melanoma)?
A: > 100 µM

Q: And the TGI (UO-31 renal)?
A: > 100 µM

Q: And the TGI (SNB-78 CNS)?
A: > 100 µM

Q: What about the TGI (SW-620 colon) of the same compound?
A: > 100 µM
